Assay results taken from patent US9593097B2, “Axl inhibitors” (Pfizer Inc., priority 2014, dated 2017).
Where two headings read alike, the source gives them in different places.

Legend:
[1] = target: Axl phosphorylation in 293MSR-AxlWT6 cells (Homo sapiens (Human), UniProt P30530); assay: Cellular Axl phosphorylation ELISA assay (Gas6-stimulated 293MSR-AxlWT6 cells); format: cell-based; conditions: read-out: CELL AXL IC50
Protocol: Cellular Axl Phosphorylation ELISA Assay
After 6-7 hrs in tissue culture incubator at 37° C. 5% CO2, medium was removed, serum-free medium was added (with 0.04% bovine serum albumin) and plates were returned to incubator where they remained overnight. […] Media was then removed and lysis buffer was added to wells and shaken at 4° C. for 30 min to generate protein lysates. Subsequently, phosphorylation of Axl was assessed by a sandwich ELISA method using a DuoSet IC Human Phospho-Axl ELISA assay kit (R&D System), an immobilized mouse anti-human Axl antibody and an anti-phospho-tyrosine-HRP antibody as a detection antibody. Antibody-coated plates were (a) incubated in presence of protein lysates at room temperature for 2 hrs, (b) washed seven times in 0.1% Tween 20 in PBS, (c) incubated with secondary antibody (a horseradish peroxidase-conjugated […]) for 2 hrs, (d) washed seven times again, (e) TMB peroxidase substrate (Bio-Rad) was added to initiate a colorimetric reaction and stopped by adding 0.2 N H2SO4, and (f) measured at OD 450 nm using a spectrophotometer. IC50 values were calculated by concentration-response curve fitting using a four-parameter analytic method and reported in μM.
For Table 4B, IC50 values were calculated by concentration-response curve fitting using a four-parameter analytic method and reported in nM.

[2] = target: Human wild-type receptor tyrosine kinase protein Axl (residues 505-811) (Homo sapiens (Human), UniProt P30530); conditions: read-out: ENZYME AXL KI; Table 4B
Sequence of Human wild-type receptor tyrosine kinase protein Axl (residues 505-811) (P30530 505-811): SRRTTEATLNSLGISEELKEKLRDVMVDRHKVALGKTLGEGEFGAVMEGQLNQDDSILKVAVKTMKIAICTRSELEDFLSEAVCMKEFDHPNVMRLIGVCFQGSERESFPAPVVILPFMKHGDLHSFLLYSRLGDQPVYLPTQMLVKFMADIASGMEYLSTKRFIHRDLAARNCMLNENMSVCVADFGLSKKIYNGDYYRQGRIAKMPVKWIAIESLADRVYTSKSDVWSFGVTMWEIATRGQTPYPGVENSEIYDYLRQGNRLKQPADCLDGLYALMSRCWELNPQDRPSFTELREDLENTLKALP

Sequence of Axl phosphorylation in 293MSR-AxlWT6 cells (P30530 26-894): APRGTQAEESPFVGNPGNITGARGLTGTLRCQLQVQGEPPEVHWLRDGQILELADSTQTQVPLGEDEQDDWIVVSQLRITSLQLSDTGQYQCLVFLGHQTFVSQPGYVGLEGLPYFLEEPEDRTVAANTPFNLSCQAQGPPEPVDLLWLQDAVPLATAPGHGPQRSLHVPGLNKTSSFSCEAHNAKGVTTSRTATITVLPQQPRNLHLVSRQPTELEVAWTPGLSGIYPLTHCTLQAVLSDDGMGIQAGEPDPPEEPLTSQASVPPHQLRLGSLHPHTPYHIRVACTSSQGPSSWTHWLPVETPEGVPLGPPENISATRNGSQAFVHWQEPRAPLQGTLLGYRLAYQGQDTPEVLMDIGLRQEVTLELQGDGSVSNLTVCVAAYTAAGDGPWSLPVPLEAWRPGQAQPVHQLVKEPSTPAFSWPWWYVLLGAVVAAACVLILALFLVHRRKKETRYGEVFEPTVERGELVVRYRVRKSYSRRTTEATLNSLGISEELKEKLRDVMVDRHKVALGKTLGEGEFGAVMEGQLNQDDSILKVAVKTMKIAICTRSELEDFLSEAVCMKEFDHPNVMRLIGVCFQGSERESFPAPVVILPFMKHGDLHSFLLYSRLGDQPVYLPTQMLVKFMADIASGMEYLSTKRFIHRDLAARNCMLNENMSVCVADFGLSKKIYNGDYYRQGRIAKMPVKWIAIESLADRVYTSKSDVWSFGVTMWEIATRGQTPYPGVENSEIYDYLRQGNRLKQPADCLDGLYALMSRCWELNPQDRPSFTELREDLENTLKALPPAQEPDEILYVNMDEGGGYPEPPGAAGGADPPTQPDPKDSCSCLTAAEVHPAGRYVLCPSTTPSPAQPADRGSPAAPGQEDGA

| Compound | IC50 ([1]; Table 4A) [nM] | IC50 ([1]; Table 4B) [nM] | Ki [2] [nM] |
| --- | --- | --- | --- |
| COc1ccnc2[nH]nc(C3CCN(c4nc(OC[C@H]5C[C@H]5C#N)nc(C(=O)NC5CCC5)n4)CC3)c12 [Example 501, 4-{[(1S,2R)-2-cyanocyclopropyl]methoxy}-N-cyclobutyl-6-[4-(4-methoxy-1H-pyrazolo[3,4-b]pyridin-3-yl)piperidin-1-yl]-1,3,5-triazine-2-carboxamide] |  | 1.07 | < 0.412 |
| COc1ccnc2[nH]cc(C3CCN(c4cc(C(=O)N[C@H](C)CO)nc(OC[C@H]5CCCO5)n4)CC3)c12 [Example 459, N-[(2R)-1-hydroxypropan-2-yl]-6-[4-(4-methoxy-1H-pyrrolo[2,3-b]pyridin-3-yl)piperidin-1-yl]-2-[(2R)-tetrahydrofuran-2-ylmethoxy]pyrimidine-4-carboxamide] |  | 0.272 | < 0.013 |
| COc1ccnc2[nH]nc(C3CCN(c4cc(C(=O)N[C@H](C)CO)nc(OCc5ccccc5)n4)CC3)c12 [Example 415, 2-(benzyloxy)-N-[(2R)-1-hydroxypropan-2-yl]-6-[4-(4-methoxy-1H-pyrazolo[3,4-b]pyridin-3-yl)piperidin-1-yl]pyrimidine-4-carboxamide] |  | 0.052 | < 0.013 |
| COC[C@@H](C)Oc1nc(C(=O)NC2CCC2)nc(N2CCC(c3c[nH]c4nccc(OC)c34)CC2)n1 [Example 502, N-cyclobutyl-4-{[(2R)-1-methoxypropan-2-yl]oxy}-6-[4-(4-methoxy-1H-pyrrolo[2,3-b]pyridin-3-yl)piperidin-1-yl]-1,3,5-triazine-2-carboxamide] |  | 0.132 | < 0.082 |
| COc1ccnc2[nH]cc(C3CCN(c4nc(OC[C@H]5C[C@H]5C#N)nc(C(=O)NC56CC(C5)C6)n4)CC3)c12 (single isomer, unassigned) [Example 504] |  | 0.125 | < 0.082 |
| COc1ccnc2[nH]cc(C3CCN(c4cc(C(=O)N[C@H](C)CO)nc(OCC5(C#N)CC5)n4)CC3)c12 [Example 387, 2-[(1-cyanocyclopropyl)methoxy]-N-[(2R)-1-hydroxypropan-2-yl]-6-[4-(4-methoxy-1H-pyrrolo[2,3-b]pyridin-3-yl)piperidin-1-yl]pyrimidine-4-carboxamide] |  | 0.152 | < 0.018 |
| C[C@H](NC(=O)c1nc(OCC2CC2)nc(N2CCC(COc3cc(-c4cn(C)cn4)cnc3N)CC2)n1)C(F)(F)F [Example 391, 4-[4-({[2-amino-5-(1-methyl-1H-imidazol-4-yl)pyridin-3-yl]oxy}methyl)piperidin-1-yl]-6-(cyclopropylmethoxy)-N-[(2S)-1,1,1-trifluoropropan-2-yl]-1,3,5-triazine-2-carboxamide] |  | 0.143 | < 0.013 |
| N#C[C@@H]1C[C@@H]1COc1nc(C(=O)NC23CC(C2)C3)nc(N2CCC(COc3cncnc3N)CC2)n1 [Example 66, 4-(4-{[(4-aminopyrimidin-5-yl)oxy]methyl}piperidin-1-yl)-N-(bicyclo[1.1.1]pent-1-yl)-6-{[(1S,2R)-2-cyanocyclopropyl]methoxy}-1,3,5-triazine-2-carboxamide] | 61.8 |  |  |
| COC[C@@H](C)Oc1nc(C(=O)NC23CC(C2)C3)nc(N2CCC(c3c[nH]c4nccc(OC)c34)CC2)n1 (single isomer, unassigned) [Example 505] |  | 0.409 | < 0.082 |

Second part, led by results:

| IC50 ([1]; Table 4A) [nM] | Compound | IC50 ([1]; Table 4B) [nM] | Ki [2] [nM] |
| --- | --- | --- | --- |
| 14.9 | COCCNC(=O)c1cc(N2CCC(c3ccc(N)c(C(N)=O)n3)CC2)nc(O[C@H](C)COC)n1 [Example 7, 6-[4-(5-amino-6-carbamoylpyridin-2-yl)piperidin-1-yl]-N-(2-methoxyethyl)-2-{[(2R)-1-methoxypropan-2-yl]oxy}pyrimidine-4-carboxamide] |  |  |
| 0.72 | COc1ccnc2[nH]cc(C3CCN(c4nc(OC[C@H]5C[C@H]5C#N)nc(C(=O)NCC(F)(F)F)n4)CC3)c12 [Example 380, 4-{[(1S,2R)-2-cyanocyclopropyl]methoxy}-6-[4-(4-methoxy-1H-pyrrolo[2,3-b]pyridin-3-yl)piperidin-1-yl]-N-(2,2,2-trifluoroethyl)-1,3,5-triazine-2-carboxamide] |  |  |
| 77.9 | COC[C@@H](C)Oc1nc(C(=O)NCC(C)(C)O)cc(N2CCC(c3ccc(N)c(C(N)=O)n3)CC2)n1 [Example 8, 6-[4-(5-amino-6-carbamoylpyridin-2-yl)piperidin-1-yl]-N-(2-hydroxy-2-methylpropyl)-2-{[(2R)-1-methoxypropan-2-yl]oxy}pyrimidine-4-carboxamide] |  |  |
| 7.89 | C[C@H](CO)NC(=O)c1cc(N2CCC(c3c[nH]c4ncccc34)CC2)nc(OC[C@H]2C[C@H]2C#N)n1 [Example 51, 2-{[(1S,2R)-2-cyanocyclopropyl]methoxy}-N-[(2R)-1-hydroxypropan-2-yl]-6-[4-(1H-pyrrolo[2,3-b]pyridin-3-yl)piperidin-1-yl]pyrimidine-4-carboxamide] |  |  |
| 231 | N#CC1(COc2nc(C(=O)NCC(F)(F)F)nc(N3CCC(c4c[nH]c5nccnc45)CC3)n2)CC1 [Example 132, 4-(4-(5H-pyrrolo[2,3-b]pyrazin-7-yl)piperidin-1-yl)-6-((1-cyanocyclopropyl)methoxy)-N-(2,2,2-trifluoroethyl)-1,3,5-triazine-2-carboxamide] |  |  |
| 16.7 | CCNC(=O)c1cc(N2CCC(COc3cc(-c4cnn(CCO)c4)cnc3N)CC2)nc(O[C@H](C)COC)n1 [Example 86, 6-{4-[({2-amino-5-[1-(2-hydroxyethyl)-1H-pyrazol-4-yl]pyridin-3-yl}oxy)methyl]piperidin-1-yl}-N-ethyl-2-{[(2R)-1-methoxypropan-2-yl]oxy} pyrimidine-4-carboxamide] |  |  |
| 242 | CN(C)CCOc1ccc(C(N)=O)nc1C1CCN(c2cc(C(=O)NC3CCC3)nc(OC[C@@H]3C[C@@H]3C#N)n2)CC1 [Example 37, 6-(4-{6-carbamoyl-3-[2-(dimethylamino)ethoxy]pyridin-2-yl}piperidin-1-yl)-2-{[(1R,2S)-2-cyanocyclopropyl]methoxy}-N-cyclobutyl-pyrimidine-4-carboxamide] |  |  |
| 455 | N#C[C@@H]1C[C@@H]1COc1nc(C(=O)NC(CCO)C(F)(F)F)cc(N2CCC(COc3cncnc3N)CC2)n1 (stereo partly drawn) [Example 63, 6-(4-{[(4-aminopyrimidin-5-yl)oxy]methyl}piperidin-1-yl)-2-{[(1S,2R)-2-cyanocyclopropyl]methoxy}-N-(1,1,1-trifluoro-4-hydroxybutan-2-yl)pyrimidine-4-carboxamide] |  |  |
| 124 | CCOc1nc(C(=O)NC23CC(C2)C3)cc(N2CCC(c3nc(C(N)=O)ccc3OCCN(C)C)CC2)n1 [Example 41, N-(bicyclo[1.1.1]pent-1-yl)-6-(4-{6-carbamoyl-3-[2-(dimethylamino)ethoxy]pyridin-2-yl}piperidin-1-yl)-2-ethoxypyrimidine-4-carboxamide] |  |  |
